ChEMBL document CHEMBL1141210, “Structure-based discovery of a new class of Hsp90 inhibitors” (Bioorg Med Chem Lett, 2005)

Tests used:
Heat shock protein HSP90 = Heat shock protein HSP90 (Homo sapiens, UniProt P07900+P08238)
Description: Binding affinity to Hsp90 by fluorescent polarization assay

HCT-116 = test: Inhibition of cell proliferation in HCT116 human colon cancer cell line; type: functional
BT-474 = test: Inhibition of cell proliferation in BT474 human breast cancer cell line after 48 hr exposure; type: functional; details: BT-474, 48 h

Row | IC50 (Heat shock protein HSP90) | Compound | GI50 (HCT-116) | GI50 (BT-474)
1 | 6.6 µM | CCc1ccc(S(=O)(=O)Nc2ccc(O)c(-c3c(O)ccc4ccccc34)c2)cc1 | – | –
2 | 6.1 µM | O=S(=O)(Nc1ccc(O)c(-c2c(O)ccc3ccccc23)c1)c1ccc(Br)cc1 | – | –
3 | 15.2 µM | Cc1cc(C)c(S(=O)(=O)Nc2ccc(O)c(-c3c(O)ccc4ccccc34)c2)cc1C | – | –
4 | 8.8 µM | O=S(=O)(Nc1ccc(O)c(-c2c(O)ccc3ccccc23)c1)c1ccc(F)cc1 | – | –
5 | – | O=S(=O)(Nc1ccc(O)c(-c2c(O)ccc3ccccc23)c1)c1cc(Cl)ccc1Cl | 29 µM | 34.9 µM
6 | 26.4 µM | CC(C)(C)c1ccc(S(=O)(=O)Nc2ccc(O)c(-c3c(O)ccc4ccccc34)c2)cc1 | – | –
7 | 3.3 µM | O=S(=O)(Nc1ccc(O)c(-c2c(O)ccc3ccccc23)c1)c1ccccc1 | – | –
8 | – | C[C@@H]1C[C@H]2O[C@@H]2/C=C\C=C\C(=O)Cc2c(Cl)c(O)cc(O)c2C(=O)O1 [RADICICOL] | 0.13 µM | –
9 | – | C=CCNC1=C2C[C@@H](C)C[C@H](OC)[C@H](O)[C@@H](C)/C=C(\C)[C@H](OC(N)=O)[C@@H](OC)/C=C\C=C(/C)C(=O)NC(=CC1=O)C2=O [TANESPIMYCIN] | 0.16 µM | –

Row | Compound | IC50 (Heat shock protein HSP90) | GI50 (HCT-116) | GI50 (BT-474)
10 | O=S(=O)(Nc1ccc(O)c(-c2c(O)ccc3ccccc23)c1)c1cccs1 | 0.6 µM | 59.8 µM | –
11 | O=S(=O)(Nc1ccc(O)c(-c2c(O)ccc3ccccc23)c1)c1ccc(Cl)cc1 | 2.2 µM | 27.8 µM | –
